From ChEMBL document CHEMBL4507265 (2021)

Key:
[1] = molecular target: Dual specificity protein kinase CLK4 (Homo sapiens) (UniProt Q9HAZ1); settings: Compound concentration 1000.0 nM
[2] = test system: Epidermal growth factor receptor (Homo sapiens), P00533 [UNDEFINED MUTATION]; settings: Compound concentration 1000.0 nM
[3] = molecular target: GABA-A receptor; anion channel (Rattus norvegicus) (UniProt O09028+P15431+P18506+P18508+P19969+P20236+P23574+P23576+P28471+P28473+P30191+P62813+P63079+P63138+Q91ZM7+Q9ES14); settings: Compound concentration 10.0 uM
[4] = molecular target: Serine/threonine-protein kinase Nek6 (Homo sapiens) (UniProt Q9HC98); settings: Compound concentration 1000.0 nM
[5] = test system: Receptor-type tyrosine-protein kinase FLT3 (Homo sapiens), P36888 [R834Q]; settings: Compound concentration 1000.0 nM
[6] = test system: Mast/stem cell growth factor receptor Kit (Homo sapiens), P10721 [D816V]; settings: Compound concentration 1000.0 nM
[7] = molecular target: Dual specificity protein kinase TTK (Homo sapiens) (UniProt P33981); settings: Compound concentration 1000.0 nM
[8] = molecular target: Ribosomal protein S6 kinase alpha-6 (Homo sapiens) (UniProt Q9UK32); settings: Compound concentration 1000.0 nM
[9] = molecular target: Serine/threonine-protein kinase RIO2 (Homo sapiens) (UniProt Q9BVS4); settings: Compound concentration 1000.0 nM
[10] = molecular target: Non-receptor tyrosine-protein kinase TYK2 (Homo sapiens) (UniProt P29597); settings: Compound concentration 1000.0 nM
[11] = test system: Mast/stem cell growth factor receptor Kit (Homo sapiens), P10721 [V559D,V654A]; settings: Compound concentration 1000.0 nM
[12] = molecular target: Casein kinase II subunit alpha (Homo sapiens) (UniProt P68400); settings: Compound concentration 1000.0 nM
[13] = molecular target: Serine/threonine-protein kinase Nek4 (Homo sapiens) (UniProt P51957); settings: Compound concentration 1000.0 nM
[14] = molecular target: Ribosomal protein S6 kinase alpha-5 (Homo sapiens) (UniProt O75582); settings: Compound concentration 1000.0 nM
[15] = molecular target: Serine/threonine-protein kinase N1 (Homo sapiens) (UniProt Q16512); settings: Compound concentration 1000.0 nM
[16] = molecular target: Tyrosine-protein kinase ABL2 (Homo sapiens) (UniProt P42684); settings: Compound concentration 1000.0 nM
[17] = molecular target: Tyrosine-protein kinase receptor TYRO3 (Homo sapiens) (UniProt Q06418); settings: Compound concentration 1000.0 nM
[18] = molecular target: Cyclin-dependent kinase-like 3 (Homo sapiens) (UniProt Q8IVW4); settings: Compound concentration 1000.0 nM
Cyclin-dependent kinase-like 3 (Homo sapiens), sequence (Q8IVW4 whole entry, looked up): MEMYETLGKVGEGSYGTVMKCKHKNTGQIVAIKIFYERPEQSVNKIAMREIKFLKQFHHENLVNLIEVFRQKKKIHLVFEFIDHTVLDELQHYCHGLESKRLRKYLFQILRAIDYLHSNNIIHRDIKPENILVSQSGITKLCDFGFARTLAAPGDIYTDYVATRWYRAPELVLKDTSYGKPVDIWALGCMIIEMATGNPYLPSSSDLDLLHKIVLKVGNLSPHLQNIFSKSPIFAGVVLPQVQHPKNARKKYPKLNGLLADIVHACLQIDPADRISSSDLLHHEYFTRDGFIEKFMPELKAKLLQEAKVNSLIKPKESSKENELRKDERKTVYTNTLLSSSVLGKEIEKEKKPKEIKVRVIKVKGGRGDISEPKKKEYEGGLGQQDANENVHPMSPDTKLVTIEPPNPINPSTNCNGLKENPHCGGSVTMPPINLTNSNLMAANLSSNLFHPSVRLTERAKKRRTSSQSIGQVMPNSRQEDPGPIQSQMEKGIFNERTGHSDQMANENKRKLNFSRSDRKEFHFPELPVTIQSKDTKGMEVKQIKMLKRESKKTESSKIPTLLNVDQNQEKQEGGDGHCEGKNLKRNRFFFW

[19] = molecular target: Rho-associated protein kinase 1 (Homo sapiens) (UniProt Q13464); settings: Compound concentration 1000.0 nM
[20] = molecular target: Serine/threonine-protein kinase pim-2 (Homo sapiens) (UniProt Q9P1W9); settings: Compound concentration 1000.0 nM
[21] = molecular target: Dual specificity tyrosine-phosphorylation-regulated kinase 1A (Homo sapiens) (UniProt Q13627); settings: Compound concentration 1000.0 nM
[22] = molecular target: Serine/threonine-protein kinase ULK2 (Homo sapiens) (UniProt Q8IYT8); settings: Compound concentration 1000.0 nM
[23] = molecular target: D(2) dopamine receptor (Homo sapiens) (UniProt P14416); settings: Compound concentration 10.0 uM
[24] = molecular target: Serine/threonine-protein kinase 24 (Homo sapiens) (UniProt Q9Y6E0); settings: Compound concentration 1000.0 nM
Serine/threonine-protein kinase 24 (Homo sapiens), sequence (Q9Y6E0 whole entry, looked up): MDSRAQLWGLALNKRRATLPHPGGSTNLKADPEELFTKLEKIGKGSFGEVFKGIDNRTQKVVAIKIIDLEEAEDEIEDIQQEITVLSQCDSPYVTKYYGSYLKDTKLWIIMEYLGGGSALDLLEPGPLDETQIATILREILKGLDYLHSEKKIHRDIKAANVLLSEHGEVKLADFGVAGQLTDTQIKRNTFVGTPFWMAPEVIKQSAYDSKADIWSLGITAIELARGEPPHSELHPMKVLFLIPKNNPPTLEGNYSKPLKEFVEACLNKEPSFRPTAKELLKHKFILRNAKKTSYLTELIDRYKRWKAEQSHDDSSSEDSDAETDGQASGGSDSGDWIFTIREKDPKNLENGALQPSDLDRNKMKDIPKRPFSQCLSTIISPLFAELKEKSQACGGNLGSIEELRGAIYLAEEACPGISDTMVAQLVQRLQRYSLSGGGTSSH

[25] = molecular target: Calcium/calmodulin-dependent protein kinase type II subunit gamma (Homo sapiens) (UniProt Q13555); settings: Compound concentration 1000.0 nM
[26] = molecular target: Proto-oncogene tyrosine-protein kinase receptor Ret (Homo sapiens) (UniProt P07949); settings: Compound concentration 1000.0 nM
[27] = molecular target: NUAK family SNF1-like kinase 2 (Homo sapiens) (UniProt Q9H093); settings: Compound concentration 1000.0 nM
[28] = molecular target: Dual specificity mitogen-activated protein kinase kinase 7 (Homo sapiens) (UniProt O14733); settings: Compound concentration 1000.0 nM
[29] = molecular target: 5-hydroxytryptamine receptor 5A (Homo sapiens) (UniProt P47898); settings: Compound concentration 10.0 uM
[30] = molecular target: SRSF protein kinase 3 (Homo sapiens) (UniProt Q9UPE1); settings: Compound concentration 1000.0 nM
[31] = test system: Receptor-type tyrosine-protein kinase FLT3 (Homo sapiens), P36888 [UNDEFINED MUTATION]; settings: Compound concentration 1000.0 nM
[32] = molecular target: Wee1-like protein kinase (Homo sapiens) (UniProt P30291); settings: Compound concentration 1000.0 nM
[33] = molecular target: Receptor tyrosine-protein kinase erbB-2 (Homo sapiens) (UniProt P04626); settings: Compound concentration 1000.0 nM
[34] = molecular target: Ribosomal protein S6 kinase alpha-2 (Homo sapiens) (UniProt Q15349); settings: Compound concentration 1000.0 nM
Ribosomal protein S6 kinase alpha-2 (Homo sapiens), sequence (Q15349 whole entry): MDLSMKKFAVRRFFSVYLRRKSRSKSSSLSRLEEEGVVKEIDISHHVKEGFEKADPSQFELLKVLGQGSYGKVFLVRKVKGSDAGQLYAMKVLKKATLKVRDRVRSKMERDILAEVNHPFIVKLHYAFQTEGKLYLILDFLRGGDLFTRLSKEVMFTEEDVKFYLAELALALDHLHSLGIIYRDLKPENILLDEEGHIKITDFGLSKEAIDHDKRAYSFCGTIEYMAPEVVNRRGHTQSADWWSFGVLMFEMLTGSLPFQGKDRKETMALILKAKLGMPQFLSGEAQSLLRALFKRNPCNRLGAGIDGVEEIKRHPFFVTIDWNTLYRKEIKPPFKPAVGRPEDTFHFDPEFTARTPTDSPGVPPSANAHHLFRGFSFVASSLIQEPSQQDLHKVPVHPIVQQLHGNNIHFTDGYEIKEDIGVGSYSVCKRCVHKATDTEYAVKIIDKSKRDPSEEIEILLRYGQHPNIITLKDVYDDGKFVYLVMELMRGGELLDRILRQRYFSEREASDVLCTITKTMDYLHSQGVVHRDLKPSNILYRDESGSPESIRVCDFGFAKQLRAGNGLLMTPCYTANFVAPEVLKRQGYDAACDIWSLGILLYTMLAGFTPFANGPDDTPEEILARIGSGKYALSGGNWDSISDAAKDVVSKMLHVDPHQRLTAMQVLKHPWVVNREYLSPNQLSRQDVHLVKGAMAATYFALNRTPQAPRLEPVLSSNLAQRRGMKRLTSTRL

[35] = molecular target: Serine/threonine-protein kinase Nek11 (Homo sapiens) (UniProt Q8NG66); settings: Compound concentration 1000.0 nM
Serine/threonine-protein kinase Nek11 (Homo sapiens), sequence (Q8NG66 whole entry): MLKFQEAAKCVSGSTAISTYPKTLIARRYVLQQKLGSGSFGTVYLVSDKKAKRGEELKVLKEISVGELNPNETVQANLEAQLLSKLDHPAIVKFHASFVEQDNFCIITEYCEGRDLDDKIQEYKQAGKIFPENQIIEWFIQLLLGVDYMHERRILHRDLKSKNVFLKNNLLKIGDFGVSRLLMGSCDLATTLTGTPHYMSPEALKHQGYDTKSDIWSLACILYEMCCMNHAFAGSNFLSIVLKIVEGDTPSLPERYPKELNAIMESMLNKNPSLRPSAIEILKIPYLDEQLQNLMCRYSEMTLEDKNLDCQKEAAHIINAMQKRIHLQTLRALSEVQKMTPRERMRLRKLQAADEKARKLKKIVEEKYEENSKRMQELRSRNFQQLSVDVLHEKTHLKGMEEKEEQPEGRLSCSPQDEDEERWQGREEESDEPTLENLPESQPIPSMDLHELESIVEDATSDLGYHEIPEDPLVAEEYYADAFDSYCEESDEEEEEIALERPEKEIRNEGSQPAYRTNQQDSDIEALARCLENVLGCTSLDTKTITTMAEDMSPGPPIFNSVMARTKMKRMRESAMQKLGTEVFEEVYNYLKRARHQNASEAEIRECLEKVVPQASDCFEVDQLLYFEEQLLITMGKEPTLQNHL

[36] = molecular target: Serine/threonine-protein kinase LATS1 (Homo sapiens) (UniProt O95835); settings: Compound concentration 1000.0 nM
[37] = molecular target: Serine/threonine-protein kinase PAK 2 (Homo sapiens) (UniProt Q13177); settings: Compound concentration 1000.0 nM
[38] = molecular target: 5'-AMP-activated protein kinase catalytic subunit alpha-1 (Homo sapiens) (UniProt Q13131); settings: Compound concentration 1000.0 nM
5'-AMP-activated protein kinase catalytic subunit alpha-1 (Homo sapiens), sequence (Q13131 whole entry, looked up): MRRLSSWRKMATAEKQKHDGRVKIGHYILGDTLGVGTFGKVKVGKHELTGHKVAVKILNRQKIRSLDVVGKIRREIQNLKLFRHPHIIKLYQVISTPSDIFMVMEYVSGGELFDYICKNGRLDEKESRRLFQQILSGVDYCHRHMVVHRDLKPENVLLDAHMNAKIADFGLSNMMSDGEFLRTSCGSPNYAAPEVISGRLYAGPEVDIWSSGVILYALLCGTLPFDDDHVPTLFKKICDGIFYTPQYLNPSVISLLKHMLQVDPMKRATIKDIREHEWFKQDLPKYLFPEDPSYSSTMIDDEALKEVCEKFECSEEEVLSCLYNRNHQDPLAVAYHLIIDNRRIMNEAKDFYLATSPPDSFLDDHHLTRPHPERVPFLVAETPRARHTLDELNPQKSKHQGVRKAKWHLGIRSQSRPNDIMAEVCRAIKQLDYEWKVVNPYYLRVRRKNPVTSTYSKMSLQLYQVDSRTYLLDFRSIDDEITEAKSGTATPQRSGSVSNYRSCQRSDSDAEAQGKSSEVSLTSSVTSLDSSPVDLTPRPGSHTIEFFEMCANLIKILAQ

[39] = molecular target: Myosin light chain kinase family member 4 (Homo sapiens) (UniProt Q86YV6); settings: Compound concentration 1000.0 nM
[40] = molecular target: Serine/threonine-protein kinase 17B (Homo sapiens) (UniProt O94768); settings: Compound concentration 1000.0 nM
Serine/threonine-protein kinase 17B (Homo sapiens), sequence (O94768 whole entry): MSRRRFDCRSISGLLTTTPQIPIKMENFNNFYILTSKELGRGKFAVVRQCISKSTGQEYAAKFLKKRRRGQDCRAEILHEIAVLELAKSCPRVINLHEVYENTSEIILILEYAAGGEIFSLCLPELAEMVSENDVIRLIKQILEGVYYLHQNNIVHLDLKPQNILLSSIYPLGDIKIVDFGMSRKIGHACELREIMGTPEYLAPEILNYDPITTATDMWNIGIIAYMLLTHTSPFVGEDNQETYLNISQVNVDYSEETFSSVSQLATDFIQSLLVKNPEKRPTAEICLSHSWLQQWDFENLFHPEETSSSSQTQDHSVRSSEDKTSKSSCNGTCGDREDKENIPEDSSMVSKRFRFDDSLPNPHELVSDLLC

[41] = molecular target: 5-hydroxytryptamine receptor 7 (Homo sapiens) (UniProt P34969); settings: Compound concentration 10.0 uM
[42] = molecular target: Serine/threonine-protein kinase Nek3 (Homo sapiens) (UniProt P51956); settings: Compound concentration 1000.0 nM
[43] = molecular target: 5'-AMP-activated protein kinase catalytic subunit alpha-2 (Homo sapiens) (UniProt P54646); settings: Compound concentration 1000.0 nM

Dual specificity protein kinase CLK4 (Homo sapiens), sequence (Q9HAZ1 whole entry, looked up): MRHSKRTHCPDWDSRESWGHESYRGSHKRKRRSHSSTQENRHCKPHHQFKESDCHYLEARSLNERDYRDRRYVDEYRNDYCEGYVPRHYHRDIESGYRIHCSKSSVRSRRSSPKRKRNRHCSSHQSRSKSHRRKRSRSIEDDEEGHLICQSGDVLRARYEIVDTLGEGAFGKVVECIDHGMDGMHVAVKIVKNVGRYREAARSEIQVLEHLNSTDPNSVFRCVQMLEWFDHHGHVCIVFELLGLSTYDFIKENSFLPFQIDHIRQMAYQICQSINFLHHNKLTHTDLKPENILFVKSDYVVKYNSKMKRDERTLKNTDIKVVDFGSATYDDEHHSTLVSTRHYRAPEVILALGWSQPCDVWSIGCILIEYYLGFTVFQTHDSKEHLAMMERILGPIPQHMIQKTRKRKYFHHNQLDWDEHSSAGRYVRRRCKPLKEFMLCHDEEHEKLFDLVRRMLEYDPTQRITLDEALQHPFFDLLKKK
Epidermal growth factor receptor (Homo sapiens), P00533 [UNDEFINED MUTATION], sequence (P00533 whole entry, looked up, change not shown): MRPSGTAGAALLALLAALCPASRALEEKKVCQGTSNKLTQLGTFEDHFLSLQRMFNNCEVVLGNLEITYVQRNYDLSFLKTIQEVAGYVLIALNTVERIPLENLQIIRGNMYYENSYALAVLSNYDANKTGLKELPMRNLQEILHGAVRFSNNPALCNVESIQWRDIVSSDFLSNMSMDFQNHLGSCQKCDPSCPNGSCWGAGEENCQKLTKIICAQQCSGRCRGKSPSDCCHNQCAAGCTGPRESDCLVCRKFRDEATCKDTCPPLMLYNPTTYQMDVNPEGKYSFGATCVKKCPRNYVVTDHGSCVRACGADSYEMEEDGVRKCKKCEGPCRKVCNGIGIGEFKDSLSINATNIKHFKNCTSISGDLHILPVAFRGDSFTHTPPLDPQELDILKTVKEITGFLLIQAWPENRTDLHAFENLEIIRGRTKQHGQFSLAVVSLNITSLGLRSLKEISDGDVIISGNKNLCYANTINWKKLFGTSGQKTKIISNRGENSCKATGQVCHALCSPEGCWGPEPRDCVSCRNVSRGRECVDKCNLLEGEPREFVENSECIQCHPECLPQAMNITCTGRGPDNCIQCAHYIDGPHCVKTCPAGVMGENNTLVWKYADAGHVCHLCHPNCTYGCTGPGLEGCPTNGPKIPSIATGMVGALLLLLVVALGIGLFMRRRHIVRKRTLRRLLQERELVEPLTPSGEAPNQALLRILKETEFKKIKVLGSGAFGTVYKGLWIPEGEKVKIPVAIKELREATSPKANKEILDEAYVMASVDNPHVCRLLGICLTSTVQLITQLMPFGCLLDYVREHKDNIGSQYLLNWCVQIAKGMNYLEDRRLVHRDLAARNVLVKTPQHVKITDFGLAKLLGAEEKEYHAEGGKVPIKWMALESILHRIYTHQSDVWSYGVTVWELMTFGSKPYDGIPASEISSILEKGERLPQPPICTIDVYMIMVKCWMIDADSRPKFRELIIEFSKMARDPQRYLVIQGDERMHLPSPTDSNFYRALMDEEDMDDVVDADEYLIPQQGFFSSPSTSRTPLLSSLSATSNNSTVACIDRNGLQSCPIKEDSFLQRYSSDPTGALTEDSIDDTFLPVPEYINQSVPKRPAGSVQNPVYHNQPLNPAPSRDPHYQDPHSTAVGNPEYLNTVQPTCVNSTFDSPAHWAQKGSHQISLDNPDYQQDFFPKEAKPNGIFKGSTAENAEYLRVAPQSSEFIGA

Structure (SMILES): NS(=O)(=O)c1cc(NC(=O)C2(c3ccccc3Cl)CC2)ccc1Oc1cccc(Cl)c1 [BAY-207]
- residual activity [1]: 100%
- residual activity [2]: 57%
- inhibition [3]: 3.19%
- residual activity [4]: 81%
- residual activity [5]: 100%
- residual activity [6]: 93%
- residual activity [7]: 100%
- residual activity [8]: 96%
- residual activity [9]: 89%
- residual activity [10]: 100%
- residual activity [11]: 100%
- residual activity [12]: 100%
- residual activity [13]: 100%
- residual activity [14]: 90%
- residual activity [15]: 100%
- residual activity [16]: 80%
- residual activity [17]: 100%
- residual activity [18]: 77%
- residual activity [19]: 100%
- residual activity [20]: 76%
- residual activity [21]: 90%
- residual activity [22]: 100%
- inhibition [23]: -9.74%
- residual activity [24]: 93%
- residual activity [25]: 93%
- residual activity [26]: 84%
- residual activity [27]: 80%
- residual activity [28]: 100%
- inhibition [29]: 5.57%
- residual activity [30]: 80%
- residual activity [31]: 100%
- residual activity [32]: 91%
- residual activity [33]: 49%
- residual activity [34]: 91%
- residual activity [35]: 100%
- residual activity [36]: 69%
- residual activity [37]: 100%
- residual activity [38]: 80%
- residual activity [39]: 94%
- residual activity [40]: 97%
- inhibition [41]: 17.3%
- residual activity [42]: 95%
- residual activity [43]: 87%

Structure (SMILES): NS(=O)(=O)c1cc(NC(=O)Cc2ccccc2)ccc1Oc1cccc(Cl)c1 [BAY-1797]
- residual activity [1]: 83%
- residual activity [2]: 67%
- inhibition [3]: 0.73%
- residual activity [4]: 98%
- residual activity [5]: 91%
- residual activity [6]: 77%
- residual activity [7]: 91%
- residual activity [8]: 59%
- residual activity [9]: 100%
- residual activity [10]: 90%
- residual activity [11]: 100%
- residual activity [12]: 96%
- residual activity [13]: 98%
- residual activity [14]: 100%
- residual activity [15]: 100%
- residual activity [16]: 87%
- residual activity [17]: 76%
- residual activity [18]: 95%
- residual activity [19]: 88%
- residual activity [20]: 100%
- residual activity [21]: 95%
- residual activity [22]: 52%
- inhibition [23]: -7.81%
- residual activity [24]: 82%
- residual activity [25]: 86%
- residual activity [26]: 100%
- residual activity [27]: 91%
- residual activity [28]: 91%
- inhibition [29]: 1.47%
- residual activity [30]: 100%
- residual activity [31]: 79%
- residual activity [32]: 75%
- residual activity [33]: 87%
- residual activity [34]: 100%
- residual activity [35]: 100%
- residual activity [36]: 79%
- residual activity [37]: 91%
- residual activity [38]: 71%
- residual activity [39]: 93%
- residual activity [40]: 100%
- inhibition [41]: 35.2%
- residual activity [42]: 100%
- residual activity [43]: 82%
